Measured values published in PubChem BioAssay (NCI).
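GI50: concentration for 50% inhibition of growth. TGI: total growth inhibition.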

Assays:
Assay in all cases: growth of human tumour cells (NCI), 384-well format
MDA-MB-468 breast = tested on: MDA-MB-468 breast
EKVX NSCLC = tested on: EKVX NSCLC
SR leukemia = tested on: SR leukemia
NCI-H23 lung = tested on: NCI-H23 lung
UO-31 renal = tested on: UO-31 renal
RPMI-8226 leukemia = tested on: RPMI-8226 leukemia
SNB-19 CNS = tested on: SNB-19 CNS
786-0 renal = tested on: 786-0 renal
SW-620 colon = tested on: SW-620 colon
NCI-H460 NSCLC = tested on: NCI-H460 NSCLC
MOLT-4 leukemia = tested on: MOLT-4 leukemia
CAKI-1 renal = tested on: CAKI-1 renal
COLO 205 colon = tested on: COLO 205 colon
NCI-H226 lung = tested on: NCI-H226 lung
HS 578T breast = tested on: HS 578T breast
NCI/ADR-RES ovarian = tested on: NCI/ADR-RES ovarian
CCRF-CEM leukemia = tested on: CCRF-CEM leukemia
LOX IMVI melanoma = tested on: LOX IMVI melanoma
SK-MEL-5 melanoma = tested on: SK-MEL-5 melanoma
SF-268 CNS = tested on: SF-268 CNS
TK-10 renal = tested on: TK-10 renal
M14 melanoma = tested on: M14 melanoma
OVCAR-4 ovarian = tested on: OVCAR-4 ovarian
A498 renal = tested on: A498 renal
OVCAR-3 ovarian = tested on: OVCAR-3 ovarian
MDA-MB-435 melanoma = tested on: MDA-MB-435 melanoma
IGROV1 ovarian = tested on: IGROV1 ovarian
MALME-3M melanoma = tested on: MALME-3M melanoma
HT29 colon = tested on: HT29 colon

CC/C(=C(/c1ccc(/C=C/C(=O)O)cc1)c1ccc2[nH]ncc2c1)c1ccc(F)cc1Cl
GI50 (MDA-MB-468 breast): 11.5 µM | TGI (MDA-MB-468 breast): 23.8 µM | GI50 (EKVX NSCLC): 14.7 µM | TGI (EKVX NSCLC): 28.2 µM | GI50 (SR leukemia): 3 µM | TGI (SR leukemia): 6.35 µM | GI50 (NCI-H23 lung): 14.7 µM | TGI (NCI-H23 lung): 27.9 µM | GI50 (UO-31 renal): 10.1 µM | TGI (UO-31 renal): 21.8 µM | GI50 (RPMI-8226 leukemia): 5.4 µM | TGI (RPMI-8226 leukemia): 16.9 µM | GI50 (SNB-19 CNS): 14.4 µM | TGI (SNB-19 CNS): 27.5 µM | GI50 (786-0 renal): 12.7 µM | TGI (786-0 renal): 25.9 µM | GI50 (SW-620 colon): 18.1 µM | TGI (SW-620 colon): 32.2 µM | GI50 (NCI-H460 NSCLC): 16.6 µM | TGI (NCI-H460 NSCLC): 30.5 µM | GI50 (MOLT-4 leukemia): 12.9 µM | TGI (MOLT-4 leukemia): 25.9 µM | GI50 (CAKI-1 renal): 16.6 µM | TGI (CAKI-1 renal): 30.4 µM | GI50 (COLO 205 colon): 15.1 µM | TGI (COLO 205 colon): 28.7 µM | GI50 (NCI-H226 lung): 18.1 µM | TGI (NCI-H226 lung): 32.1 µM | GI50 (HS 578T breast): 15.6 µM | TGI (HS 578T breast): 29 µM | GI50 (NCI/ADR-RES ovarian): 14.1 µM | TGI (NCI/ADR-RES ovarian): 27.7 µM | GI50 (CCRF-CEM leukemia): 10.5 µM | TGI (CCRF-CEM leukemia): 22.3 µM | GI50 (LOX IMVI melanoma): 10.5 µM | TGI (LOX IMVI melanoma): 22.4 µM | GI50 (SK-MEL-5 melanoma): 12.6 µM | TGI (SK-MEL-5 melanoma): 25.2 µM | GI50 (SF-268 CNS): 15.6 µM | TGI (SF-268 CNS): 29 µM | GI50 (TK-10 renal): 16.3 µM | TGI (TK-10 renal): 31.2 µM | GI50 (M14 melanoma): 7.57 µM | TGI (M14 melanoma): 20.5 µM | GI50 (OVCAR-4 ovarian): 14.2 µM | TGI (OVCAR-4 ovarian): 28 µM | GI50 (A498 renal): 10.9 µM | TGI (A498 renal): 22.9 µM | GI50 (OVCAR-3 ovarian): 14.3 µM | TGI (OVCAR-3 ovarian): 27.6 µM | GI50 (MDA-MB-435 melanoma): 2.71 µM | TGI (MDA-MB-435 melanoma): 7.22 µM | GI50 (IGROV1 ovarian): 15.2 µM | TGI (IGROV1 ovarian): 29 µM | GI50 (MALME-3M melanoma): 14.8 µM | TGI (MALME-3M melanoma): 28 µM | GI50 (HT29 colon): 16.7 µM | TGI (HT29 colon): 30.5 µM
